# Test: CMR value (relative to BAY K 8644)
# Type: ADME
row,CMR,SMILES
1,9.6,COC(=O)c1c(C)[nH]c(C)c1C(=O)c1ccccc1-c1ccccc1
2,8.01,COC(=O)c1c(C)[nH]c(C)c1C(=O)c1ccc(C)cc1C
3,10.08,COC(=O)c1c(C)[nH]c(C)c1C(=O)c1ccccc1Cc1ccc(F)cc1
4,7.58,COC(=O)c1c(C)[nH]c(C)c1C(=O)c1ccccc1C
5,10.78,COC(=O)c1c(C)[nH]c(C)c1C(=O)c1ccccc1Cc1ccccc1[N+](=O)[O-]
6,10.4,COC(=O)c1c(C)[nH]c(C)c1C(=O)c1ccccc1C(=O)Oc1ccccc1O
7,8.07,COC(=O)c1c(C)[nH]c(C)c1C(=O)c1ccc(Cl)cc1Cl
8,10.08,COC(=O)c1c(C)[nH]c(C)c1C(=O)c1ccc(F)cc1Cc1ccccc1
9,9.75,COC(=O)c1c(C)[nH]c(C)c1C(=O)c1ccccc1Nc1ccccn1
10,11.13,COC(=O)c1c(C)[nH]c(C)c1C(=O)c1ccccc1Sc1ccc([N+](=O)[O-])cc1
11,10.09,COC(=O)c1c(C)[nH]c(C)c1C(=O)c1ccc(F)cc1Cc1ccc(F)cc1
12,8.39,COC(=O)c1c(C)[nH]c(C)c1C(=O)c1ccccc1I

# The remaining lines, values behind:
row,SMILES,CMR
1,COC(=O)c1c(C)[nH]c(C)c1C(=O)c1ccccc1SCc1ccccc1,10.87
2,COC(=O)c1c(C)[nH]c(C)c1C(=O)c1ccccc1Sc1ccccc1,10.4
3,COC(=O)c1c(C)[nH]c(C)c1C(=O)c1ccccc1Cc1ccc([N+](=O)[O-])cc1,10.79
4,COC(=O)c1c(C)[nH]c(C)c1C(=O)c1ccccc1Cl,7.58
5,COC(=O)c1c(C)[nH]c(C)c1C(=O)c1ccccc1OCc1ccccc1,10.21
6,COC(=O)c1c(C)[nH]c(C)c1C(=O)c1ccc(F)cc1Br,7.877
7,COC(=O)c1c(C)[nH]c(C)c1C(=O)c1ccccc1CCc1ccccc1,10.52
8,COC(=O)c1c(C)[nH]c(C)c1C(=O)c1ccccc1OS(=O)(=O)c1ccc(C)cc1,10.62
9,COC(=O)c1c(C)[nH]c(C)c1C(=O)c1ccccc1OC,7.7
10,COC(=O)c1c(C)[nH]c(C)c1C(=O)c1ccccc1Nc1ccccc1,9.96
11,COC(=O)c1c(C)[nH]c(C)c1C(=O)c1ccccc1C(F)(F)F,7.6
12,COC(=O)c1c(C)[nH]c(C)c1C(=O)c1ccccc1Br,7.86
13,COC(=O)c1c(C)[nH]c(C)c1C(=O)c1ccccc1NC1CCCCC1,10.06
14,COC(=O)c1c(C)[nH]c(C)c1C(=O)c1ccccc1Cc1ccccc1,10.06
15,COC(=O)c1c(C)[nH]c(C)c1C(=O)c1ccccc1[S+]([O-])Cc1ccccc1 (stereo unspecified),10.9
16,COC(=O)c1c(C)[nH]c(C)c1C(=O)c1ccccc1Oc1ccccc1,9.75
17,COC(=O)c1c(C)[nH]c(C)c1C(=O)c1ccccc1Oc1ccc([N+](=O)[O-])cc1,10.47
18,COC(=O)c1c(C)[nH]c(C)c1C(=O)c1ccccc1Cc1ccc(N)cc1,10.43
19,COC(=O)c1c(C)[nH]c(C)c1C(=O)c1ccccc1,7.08
20,COC(=O)c1c(C)[nH]c(C)c1C(=O)c1ccccc1CC1CCCCC1,10.15
21,COC(=O)c1c(C)[nH]c(C)c1C(=O)c1ccccc1S(=O)(=O)Cc1ccccc1,10.93
22,COC(=O)c1c(C)[nH]c(C)c1C(=O)c1ccccc1F,7.1
23,COC(=O)c1c(C)[nH]c(C)c1C(=O)c1ccccc1[S+]([O-])c1ccccc1 (stereo unspecified),10.44
24,COC(=O)c1c(C)[nH]c(C)c1C(=O)c1ccc([N+](=O)[O-])cc1Cl,8.3

# Reference: ChEMBL document CHEMBL1127707, “The use of the GRID program in the 3-D QSAR analysis of a series of calcium-channel agonists” (J Med Chem, 1994)
